Measurements taken from patent publication US7001903B2, “Synergistic insecticidal mixtures” (Bayer Aktiengesellschaft, priority 1999, dated 2006).

Legend:
Assay type in all cases: in vivo
[1] = test system: Phaedon cochleariae larvae; assay: Critical concentration test / root-systemic action (cabbage, soil treatment)
Method: (§1) Critical Concentration Test/Root-Systemic Action
To produce a suitable preparation of active compound, 1 part by weight of active compound is mixed with the stated amount of solvent, the stated amount of emulsifier is added and the concentrate is diluted with water to the desired concentration.
The active compound preparation is mixed intimately with soil. The concentration of the active compound in the preparation is of virtually no importance, only the amount by weight of active compound per unit volume of soil, which is given in ppm (=mg/l), being decisive. The treated soil is filled into 500 ml pots, 8 cabbage seeds are placed at a depth of approximately 1 cm, the hole is filled and the soil surface is pressed down gently.
After a further 3 days, the test is evaluated by estimating the leaf-feeding in the treated and in the untreated plant. The effect is 100% if, compared with the untreated control, only […] feeding damage is observed; it is 0% when the entire cabbage has been eaten.

Myzus persicae = assay: Critical concentration test, foliar insecticidal activity against sucking pests (leaf dip, cabbage); details: Myzus persicae on cabbage
Excerpt: Activity of Folia-Insecticidal Formulations Against Sucking Pests
The insecticidal activity was examined using the critical concentration test. From each of the test preparations, an aqueous dilution series is made by diluting the individual concentrations by the factor 5.
To determine any synergistic activity, weakly active concentrations of chloronicotinyl compounds are combined with various active compound concentrations of Tracer (Spinosad).
The test plants used are cabbage plants at the one-leaf stage which are infested by Myzus persicae (green peach aphid). The shoots or leaves with the aphids are dipped for approximately 3 seconds into the respective liquors. The experiments are subsequently placed in a greenhouse at 21° C. and 65% relative atmospheric humidity.
Evaluation for mortality is carried out after 2 and 7 days.

Aphis fabae = assay: Critical concentration test / root-systemic action (broad beans, soil treatment); details: 0.035 ppm in soil
Method: as §1
To produce a suitable preparation of active compound, 1 part by weight of active compound is mixed with a stated amount of solvent, the stated amount of emulsifier is added and the concentrate is diluted with water to the desired concentration.
The active compound preparation is mixed intimately with soil. The concentration of the active compound in the preparation is of virtually no importance, only the amount by weight of active compound per unit volume of soil, which is given in ppm (=mg/l), being decisive. The treated soil is filled into 250 ml pots and the pots are planted with pre-germinated broad beans. In this manner, the active compound can be taken up from the soil by the roots of the plants and transported into the leaves.
After a further 7 days, the test is evaluated by estimating the dead animals. The root-systemic effect of the active compound is deduced from the destruction figures. It is 100% when all the test animals have been killed and 0% when just as many test insects are still alive as in the untreated control.

[2] = compound (III) alone 0.00016% a.i., evaluation after 2 days
[3] = compound (III) alone 0.00016% a.i., evaluation after 7 days
[4] = compound (III) alone 0.0008% a.i., evaluation after 2 days
[5] = compound (III) alone 0.0008% a.i., evaluation after 7 days

Row | Structure (SMILES) | Degree of destruction in % at active compound concentrations ([1]; 2.50 ppm in soil) | kill (Myzus persicae; [2]) | kill (Myzus persicae; [3]) | kill (Myzus persicae; [4]) | kill (Myzus persicae; [5]) | Degree of destruction in % at active compound concentrations ([1]; 0.30 ppm in soil) | Degree of destruction in % at active compound concentrations ([1]; 5.00 ppm in soil) | Degree of destruction in % at active compound concentrations (Aphis fabae) | Degree of destruction in % at active compound concentrations ([1]; 1.25 ppm in soil)
1 | N#C/N=C1\SCCN1Cc1ccc(Cl)nc1 [Compound (III l)] | 2.50 ppm = 0% | 8% | 0% | 85% | 38% | – | – | – | –
2 | CN1COCN(Cc2cnc(Cl)s2)/C1=N/[N+](=O)[O-] [Compound (IIIg)] | – | 0% | 0% | 79% | 70% | 0.30 ppm = 50% | – | – | –
3 | C/C(=N\C#N)N(C)Cc1ccc(Cl)nc1 [Compound (IIIe)] | – | – | – | – | – | – | 5.00 ppm = 0% | – | –
4 | CN/C(=N\[N+](=O)[O-])NCc1cnc(Cl)s1 [Compound (IIIk)] | – | 10% | 2% | 48% | 28% | 0.30 ppm = 0% | – | – | –
5 | O=[N+]([O-])/N=C1\NCCN1Cc1ccc(Cl)nc1 [Compound (IIIa)] | – | 18% | 2% | 90% | 78% | – | – | 0.035 ppm = 50% | 1.25 ppm = 0%
